The values below come from publication PMC9863607, “Combined Use of Antimicrobial Peptides with Antiseptics against Multidrug-Resistant Bacteria: Pros and Cons” (Pharmaceutics, 2023).

Like-named read-outs stand apart in the source and are kept apart here. Peptide text beside a SMILES is read from it. A value given as a limit tells only on which side of the number the result lay.

In one assay the test system is E. coli ESBL 521/17. Put plainly: microbe, parasite or virus in culture. In kind it is cell-based, Escherichia coli. The procedure: (§1) In this regard the test plates were preincubated for 1 h at 37 °C with 0.1% bovine serum albumin (BSA) in distilled water before use. Bacteria were grown overnight at 37 °C with shaking in 2.1% Müller–Hinton broth (MHB), and then a small aliquot was transferred into the fresh portion of the same medium for another 2–3 h on the day of the experiment to provide us with the log phase bacterial suspension. Concentration of bacterial cells in suspension was evaluated based on absorbance at 620 nm and diluted down to 1 × 10^6 CFU/mL with MHB. Equal volumes of the prepared bacterial suspension in MHB and two-fold serial dilutions of the antimicrobials in 10 mM sodium phosphate (Na-P) buffer (pH 7.4) with 0.1% BSA were mixed and incubated overnight at 37 °C. The lowest concentration where no bacterial growth was observed the next day under visual examination was considered the minimal inhibitory concentration. The test was repeated at least three times, and the final MIC value was established as a median result. Each experiment was conducted in triplicates. Terasaki microplates (10 µL end volume, V-shaped bottom; Sarstedt, Nümbrecht, Germany) were used.

A further assay has as its system S. aureus 1399/17. Briefly: microbe, parasite or virus in culture. The format is cell-based, Staphylococcus aureus. As for the experimental part:
as §1

The subject of another assay is A. baumannii 7226/16. Briefly: Crystal violet assay of biofilm formation. The format is cell-based, Acinetobacter baumannii. Conditions: median of 3 independent experiments; for Minimal FECI, AMP + CAPB, biofilm formation: combination with cocamidopropyl betaine; for Minimal FECI, AMP + DXD, biofilm formation: combination with dioxydin; for Minimal FECI, AMP + ETA, biofilm formation: combination with etidronic acid; for Minimal FECI, AMP + PTS, biofilm formation: combination with prontosan; for MECBF partially inhibiting bacterial biofilms: minimal concentration with significant decrease vs intact control (Mann–Whitney, p < 0.05), 24 h, 37 °C, MHB. The procedure: The impact of the tested antimicrobials and their combinations on the formation of biofilms was quantitated as per the crystal violet assay protocol published by Merritt et al.. Testing was performed in 96-well immunological plates with U-shaped bottoms. Overnight cultures of tested bacteria in MHB were diluted by a factor of 50, mixed 1:1 with 50 μL of active compounds or combinations in the same growth medium adjusted to double the desired final concentration, and left to form biofilms for 24 h at 37 °C. Experimental samples were quadruplicated, and control without antimicrobials was octuplicated.
Then, the liquid content of the test plates was discarded, and the plates were gently washed in still water from residual traces of unattached planktonic bacteria. Each well was supplied with 125 μL 0.1% aqueous solution of crystal violet dye for 10 min at room temperature to stain biofilm components left attached to the surface. After staining, the plates were washed with clear water once more to remove excessive dye and left to air-dry. To quantify the amount of the bound dye corresponding to the thickness of the formed biofilm, it was redissolved in 30% acetic acid, 200 μL of which was introduced into each well. After 15 min at room temperature, the content of the wells was mixed by repetitive pipetting to ensure complete dye extraction, and 125 μL of each sample was transferred well-by-well into 96-well clear flat-bottom plates for spectrophotometric examination. OD was measured at 580 nm. Final results were calculated as medians based on three independent experiments.
The minimal concentrations of AMPs and antiseptics causing a statistically significant inhibitory effect on biofilm formation (i.e., a statistically significant decrease compared with the control biofilm formed by the intact bacteria; Mann–Whitney U-test, p < 0.05) are shown in Table 3 and are later referenced as MECBF (for minimal effective concentration regarding biofilm formation). The exact value of such a minimal effect is admittedly small, within the range of a 10–20% decrease in the density of the emerging biofilm. Thus, the practical usefulness of such an effect, even if strengthened in combinations, is quite questionable; however, from the academic point of view, even slight changes can provide us with information on the mode of interaction between AMPs and antiseptics and allow us to make certain assumptions about the nature of such interactions.
Analyzing the combined action of AMPs and antiseptics (AS) in sub-microbicidal concentrations toward biofilms, we adopted the same approach based on the calculation of fractional indices as the one we used while testing antimicrobial activity on planktonic bacteria. For combinations, the series of concentrations from [MECBF(AMP) + MECBF(AS)], [½MECBF(AMP) + ½MECBF(AS)] and down to [1/32 × MECBF(AMP) + 1/32 × MECBF(AS)] was analyzed. […] The fractional indices, denoted here as fractional effective concentration indices (FECIs), were calculated as follows: FECI = [AMP]/MECBF(AMP) + [AS]/MECBF(AS), where [AMP] and [AS] are the concentration of AMP and antiseptic in a combination that has a statistically significant inhibitory effect on the formation of biofilms if compared with the intact control (Mann–Whitney U-test, p < 0.05). The minimal FECI > 4 was interpreted as antagonism, FECI ≤ 0.5 as synergy, 0.5 < FECI ≤ 1 as additivity, and 1 < FECI ≤ 4 as independent action.

[1] abbreviates: sub-microbicidal concentrations.
[2] abbreviates: antiseptics and surfactants, MHB, overnight 37 °C, median of 3–4 independent experiments, prontosan as polyhexanide.

Turning to `CC[C@H](C)[C@H](NC(=O)[C@H](CCCNC(=N)N)NC(=O)[C@@H](NC(=O)[C@@H]1CCCN1C(=O)[C@@H]1CCCN1C(=O)[C@H](CCCNC(=N)N)NC(=O)[C@H](CCCNC(=N)N)NC(=O)[C@H](Cc1ccccc1)NC(=O)[C@@H]1CCCN1C(=O)[C@H](CC(C)C)NC(=O)[C@H](CCCNC(=N)N)NC(=O)[C@H](Cc1ccccc1)NC(=O)[C@@H](N)CCCNC(=N)N)[C@@H](C)CC)C(=O)N[C@@H](Cc1c[nH]cn1)C(=O)N1CCC[C@H]1C(=O)N1CCC[C@H]1C(=O)N1CCC[C@H]1C(=O)N[C@@H](Cc1ccccc1)C(=O)N[C@@H](Cc1ccc(O)cc1)C(=O)N1CCC[C@H]1C(=O)N1CCC[C@H]1C(=O)N[C@@H](Cc1ccccc1)C(=O)N[C@@H](CCCNC(=N)N)C(=O)N[C@@H](CCCNC(=N)N)C(=O)N[C@@H](Cc1ccccc1)C(=O)N[C@@H](CC(C)C)C(=O)O` [ChBac3.4] (H-RFRLPFRRPPIRIHPPPFYPPFRRFL-OH; N-terminus assumed), in the assay on E. coli ESBL 521/17 (ESBL 521/17, 1 h), the MIC stood at 3.1 µM. Besides, the MIC with S. aureus 1399/17 (1399/17, 1 h) came to 3.1 µM. Besides, in the assay with A. baumannii 7226/16 (setting [1]), the “Minimal FECI, AMP + CAPB, biofilm formation” value came out at 0.5; the “Minimal FECI, AMP + DXD, biofilm formation” value was 1; the “Minimal FECI, AMP + ETA, biofilm formation” value turned out to be 1.12; the “Minimal FECI, AMP + PTS, biofilm formation” value is 0.5. Further, the “Minimal FECI, AMP + PVG, biofilm formation” value with A. baumannii 7226/16 (combination with poviargolum, sub-microbicidal concentrations) turned out to be 1. In the assay on A. baumannii 7226/16, the “MECBF partially inhibiting bacterial biofilms” value is listed as 1/16.

In turn, `CC(C)C[C@H](NC(=O)[C@H](CCCNC(=N)N)NC(=O)CNC(=O)CNC(=O)[C@@H](N)CCCNC(=N)N)C(=O)N[C@H]1CSSC[C@@H](C(=O)N[C@H](C(=O)NCC(=O)N[C@@H](CCCNC(=N)N)C(N)=O)C(C)C)NC(=O)[C@H](C(C)C)NC(=O)[C@@H]2CSSC[C@H](NC(=O)[C@H](Cc3ccc(O)cc3)NC1=O)C(=O)N[C@@H](CCCNC(=N)N)C(=O)N[C@@H](CCCNC(=N)N)C(=O)N[C@@H](CCCNC(=N)N)C(=O)N[C@@H](Cc1ccccc1)C(=O)N2` [PG-1, protegrin 1] showed an MIC in the assay on E. coli ESBL 521/17 (ESBL 521/17, 1 h) of 0.4 µM. The same compound came in with an MIC in the assay on S. aureus 1399/17 (1399/17, 1 h) of 0.4 µM. For the same compound, in the assay on A. baumannii 7226/16 (setting [1]), the “Minimal FECI, AMP + CAPB, biofilm formation” value is 0.5; the “Minimal FECI, AMP + DXD, biofilm formation” value is 1.12; the “Minimal FECI, AMP + ETA, biofilm formation” value is given as 1.12; the “Minimal FECI, AMP + PTS, biofilm formation” value was found to be 0.25. For the same compound, the “MECBF partially inhibiting bacterial biofilms” value with A. baumannii 7226/16 is given as 1/32.

For the compound `CC(O)(P(=O)(O)O)P(=O)(O)O` [Etidronic acid], the MIC stood at 50 mg/mL in the assay on E. coli ESBL 521/17 (Escherichia coli, ESBL521/17, antiseptics and surfactants, MHB, overnight 37 °C, median of 3–4 independent experiments, prontosan as polyhexanide, read-out: MIC); 50 mg/mL in the assay on S. aureus 1399/17 (Staphylococcus aureus, 1399/17, antiseptics and surfactants, MHB, overnight 37 °C, median of 3–4 independent experiments, prontosan as polyhexanide, read-out: MIC). Besides, the “MECBF partially inhibiting bacterial biofilms” value with A. baumannii 7226/16 is on record as 1/128.

As to `[O-][n+]1c(CO)c(CO)[n+]([O-])c2ccccc21` [Dioxydin], the figures for the MIC in the assay with E. coli ESBL 521/17 (setting [2]) and against S. aureus 1399/17 (setting [2]) were 0.0156 mg/mL and 0.5 mg/mL, respectively. Besides, the “MECBF partially inhibiting bacterial biofilms” value in the assay on A. baumannii 7226/16 is recorded as 1/16.

For Cocamidopropyl betaine, the MIC against E. coli ESBL 521/17 (setting [2]) and against S. aureus 1399/17 (setting [2]) was >50,000 µg/mL throughout. Further, in the assay with A. baumannii 7226/16, the “MECBF partially inhibiting bacterial biofilms” value is 1/32.
